Holding throughout (test): NCI-60 cell line screen, 48 h
In test [1] the test system is TK-10.
Test [2] has as its system NCI-H23.
Test [3] deals with UACC-62.
The test system of test [4] is HCT-15.
The subject of test [5] is UACC-257.
Test [6] has as its system KM12.
Test [7] concerns T47D.
The subject of test [8] is NCI/ADR-RES.
The test system of test [9] is IGROV-1.
Test [10] deals with COLO 205.
The test system of test [11] is HOP-62.
The subject of test [12] is SF-268.
The test system of test [13] is NCI-H460.
In test [14] the test system is A498.
Test [15] deals with MCF7.
Test [16] concerns K562.
Test [17] concerns HOP-92.
In test [18] the test system is CCRF-CEM.
Test [19] relates to A549.
Test [20] concerns MDA-N.

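96-well plates; 48 h exposure; 5 concentrations. Endpoints by linear interpolation between flanking doses. Not reached: highest tested concentration assigned. The concentration for 50% growth inhibition is given as GI50.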 Calls of active or inactive are those of the source. Cut-off read from the data, not from the text of the source: active = GI50 up to about 1.1 µM and inactive = higher. Some results are limits rather than exact numbers.

For `Cc1cccc(NC(=S)Nc2ccc([N+](=O)[O-])cc2)n1`, the GI50 in [1] was > 100 µM (inactive); in [2], > 100 µM (inactive); in test [3], > 100 µM (inactive); in test [4] it was above 100 µM; in test [5] it was > 100 µM (inactive); in test [6], > 100 µM (inactive). In addition, the GI50 in test [7], in test [8], in [9], in test [10], in [11] and in [12] was > 100 µM (inactive) throughout. For the same compound, the GI50 in test [13], in [14], in [15], in [16], in test [17] and in [18] was > 100 µM (inactive) in each case.

Take `COc1cc(C2C3=C(NC(=O)C2C#N)c2ccc4ccccc4c2OCC3)cc(OC)c1OC` (stereo not drawn): the GI50 in [1] is > 100 µM (inactive); in [2] it was 41.3 µM (inactive); in test [19], 54.2 µM (inactive); in [4], 41.8 µM; in [5], 56.5 µM (inactive); in test [6], 44.9 µM (inactive). The GI50 in [7] was 12.2 µM (inactive); in test [8], 30.4 µM (inactive); in [9] it was 16.2 µM (inactive); in [10], 15.4 µM (inactive); in [11], 20 µM (inactive); in test [12] it was 22.8 µM (inactive). The GI50 in test [13] is 25.9 µM (inactive); in [14] it was 12.4 µM (inactive); in test [15] it was 30.9 µM (inactive); in test [16], 44.6 µM (inactive); in test [17] it was 10.4 µM (inactive); in test [18], 70.8 µM (inactive).

As for `O=C(C=P(c1ccccc1)(c1ccccc1)c1ccccc1)c1ccc(-c2cccc([N+](=O)[O-])c2)s1`, the GI50 in test [1] was 83.8 µM (inactive); in test [2], 77.6 µM (inactive); in [3] it was 59 µM (inactive); in [19] it was 57.5 µM (inactive); in [4], 41.1 µM; in [6] it was 42 µM (inactive). The GI50 in [8] is 25.8 µM (inactive); in [9] it was 50 µM (inactive); in test [10], 14 µM (inactive); in test [11] it was > 100 µM (inactive); in test [12] it was > 100 µM (inactive); in [13] it was 39.4 µM (inactive). The GI50 in test [20] was 29.7 µM (inactive); in test [14] it was 35.2 µM (inactive); in test [15] it was 29.4 µM (inactive); in test [16], 37 µM (inactive); in test [17], 16.4 µM (inactive); in test [18], 30.6 µM (inactive).

As to `C=C(C)[C@@H]1CCC2=C(CC[C@]3(C)[C@@H]([C@@H](CCC=C(C)C)C(=O)O)[C@H](O)C[C@@]23C)[C@@]1(C)CCC(=O)O` [PORICOIC ACID G], the GI50 in test [1] was > 100 µM (inactive); in [2], 87.3 µM (inactive); in test [19] it was 42.1 µM (inactive); in [4], 38.6 µM; in test [5], > 100 µM (inactive); in test [6], 47.4 µM (inactive). Also, the GI50 in test [7] was > 100 µM (inactive); in test [8] it was > 100 µM (inactive); in test [9] it was 42.6 µM (inactive); in test [10], 52.8 µM (inactive); in test [11], 53.2 µM (inactive); in [12], 94.8 µM (inactive). Moreover, the GI50 is 46.8 µM (inactive) in test [13]; 86.3 µM (inactive) in test [20]; > 100 µM (inactive) in test [14]; 53.2 µM (inactive) in [16]; 32.1 µM (inactive) in test [17]; 63.2 µM (inactive) in test [18].

Consider `NC(=O)NC(=O)c1cccc(CNc2ccc(C(=O)N[C@@H](CCC(=O)O)C(=O)O)cc2)n1`, for which the GI50 in test [1] was > 100 µM (inactive); in test [2], > 100 µM (inactive); in test [3], 4 µM (inactive); in test [19], > 100 µM (inactive); in test [4], above 100 µM; in test [5], > 100 µM (inactive). The GI50 in test [6], in test [8], in test [9], in [10], in test [12] and in [13] was > 100 µM (inactive) each time. In addition, the GI50 in [20], in test [15], in test [16] and in test [17] was > 100 µM (inactive) throughout.

Consider `CC(SC(=S)N(C)C)C(=O)Nc1nnc(-c2ccc(Cl)cc2)o1` (stereo not drawn), for which the GI50 in [1] is 80.2 µM (inactive); in [2], 54.2 µM (inactive); in test [3] it was 45.8 µM (inactive); in test [19] it was 33.3 µM (inactive); in test [4], 17.7 µM; in test [5] it was 65.9 µM (inactive). Also, the GI50 is 44.8 µM (inactive) in test [7]; 14.6 µM (inactive) in test [8]; 30.2 µM (inactive) in [9]; 33.3 µM (inactive) in [10]; 51.2 µM (inactive) in test [11]; 29 µM (inactive) in test [12]. The GI50 in test [13] was 35.8 µM (inactive); in [14], 42.4 µM (inactive); in test [15], 26.7 µM (inactive); in test [16] it was 14.3 µM (inactive); in test [17] it was > 100 µM (inactive).

For the compound `O=CN1CCN(C(=O)c2ccc(Cl)c(Cl)c2)C1=S`, the GI50 in [1] was 16.5 µM (inactive); in [2] it was 20.9 µM (inactive); in test [3], 16 µM (inactive); in test [19], 17.7 µM (inactive); in test [4], 19.3 µM; in [5], 17.7 µM (inactive). In addition, the GI50 in test [6] is 15.7 µM (inactive); in test [7], 15.3 µM (inactive); in [8] it was 32.9 µM (inactive); in test [9], 15.1 µM (inactive); in test [10], 20 µM (inactive); in test [11] it was 16.1 µM (inactive). Moreover, the GI50 was 22.2 µM (inactive) in test [12]; 19.2 µM (inactive) in test [13]; 15.8 µM (inactive) in [14]; 4.63 µM (inactive) in [15]; 13.8 µM (inactive) in [16]; 7.13 µM (inactive) in [18].

As for `O=C(/C=C/c1ccc(-c2ccccc2[N+](=O)[O-])o1)NCc1ccc(C(=O)NCCc2ccccc2)cc1`, the GI50 is > 100 µM (inactive) in test [1]; > 100 µM (inactive) in test [2]; 6.4 µM (inactive) in test [3]; > 100 µM (inactive) in test [19]; above 100 µM in test [4]; 46.7 µM (inactive) in test [5]. The GI50 in test [6], in test [7], in [8], in test [9], in [10] and in test [11] was > 100 µM (inactive) each time. Besides, the GI50 in test [12] was > 100 µM (inactive); in test [13] it was > 100 µM (inactive); in [14], 29.3 µM (inactive); in test [15], > 100 µM (inactive); in [16], > 100 µM (inactive); in test [17] it was > 100 µM (inactive).

For the compound `OCSc1nn(CO)c(=S)s1`, the GI50 in test [1] was 73.5 µM (inactive); in [2] it was 20 µM (inactive); in [3], 17.5 µM (inactive); in test [19] it was 33.2 µM (inactive); in [4], 18.3 µM; in test [5] it was 23 µM (inactive). For the same compound, the GI50 in test [6] was 18.7 µM (inactive); in test [7] it was 23.9 µM (inactive); in [8] it was 21.1 µM (inactive); in test [9], 17.7 µM (inactive); in test [10], 28.1 µM (inactive); in test [11], 21.8 µM (inactive). Further, the GI50 in test [12] was 21.6 µM (inactive); in [13] it was 23.8 µM (inactive); in [15] it was 15.4 µM (inactive); in test [16], 20.7 µM (inactive); in [17], 11.4 µM (inactive); in [18], 6.79 µM (inactive).

For the compound `Cc1cc2c(cc1C)[n+]([O-])c(NCCCN(C)C)c(C#N)[n+]2[O-]`, the GI50 in test [1] was > 100 µM (inactive); in test [2], 80.9 µM (inactive); in [3], 76.4 µM (inactive); in test [19], > 100 µM (inactive); in test [4] it was 75.2 µM; in test [5], > 100 µM (inactive). The GI50 is > 100 µM (inactive) in test [6]; 85.1 µM (inactive) in test [8]; 35.5 µM (inactive) in test [9]; > 100 µM (inactive) in test [11]; > 100 µM (inactive) in [12]; 26.2 µM (inactive) in [13]. Also, the GI50 in [20] is > 100 µM (inactive); in test [14], > 100 µM (inactive); in test [15], > 100 µM (inactive); in test [16], 37.5 µM (inactive); in [17], > 100 µM (inactive); in test [18] it was 57.3 µM (inactive).

As for `CCCCCCCCCCCCCCCCCCCCCC(=O)Nc1ccn(C2OC(CO)C(O)C2O)c(=O)n1` (stereo not drawn), the GI50 in test [1] was > 100 µM (inactive); in test [2], 3.1 µM (inactive); in [3], 33.6 µM (inactive); in test [19], 4.68 µM (inactive); in test [4], above 96.2 µM; in [5] it was > 100 µM (inactive). In addition, the GI50 in test [6] is > 100 µM (inactive); in test [9] it was > 68.9 µM (inactive); in test [10], > 54.2 µM (inactive); in [11] it was 3.11 µM (inactive); in test [12], 18.4 µM (inactive); in test [13] it was 2.32 µM (inactive). Moreover, the GI50 is 34.2 µM (inactive) in test [14], > 50.6 µM (inactive) in test [16], > 40.8 µM (inactive) in test [17] and 0.191 µM (active) in [18].
